Values of other authors in US9987593B2, “Method for producing NOx storage-reduction catalyst” (TOYOTA JIDOSHA KABUSHIKI KAISHA, priority 2016, dated 2018).

Compound	solubility in water (in words)	solubility in water [mg/100 ml H2O]
O=C(O)c1nc(=O)[nH]c(=O)[nH]1 [oteracil potassium, reference compound]	substantially insoluble in water	
[K+].c1ccc([B-](c2ccccc2)(c2ccccc2)c2ccccc2)cc1 [potassium tetraphenylborate]	substantially insoluble in water	0.18
